Values joined by “and” are separate entries in the source; they are usually repeats but may differ in a detail not shown here. Identical values can stand only once.
Legend:
[1] = Cytotoxicity (SRB) against non-tumoral L02 cells; type: cell-based, human; details: human, L02 cells (non-tumoral human liver cell line); increasing concentrations up to 100 μM; mean ± SD of at least three independent experiments; read-out: Normal Human Cell Lines, CC50, L02
[2] = system: L02 (a human liver cell line); experiment: Cytotoxicity (SRB) against non-tumoral L02 cells; type: cell-based; details: L02 versus the five tumoral cell lines
[3] = system: HepG2 cells; experiment: In vitro anti-proliferative SRB assay, HepG2; type: cell-based, human; details: for IC50: Homo sapiens, HepG2, increasing concentrations up to 30 μM, mean ± SD of at least three independent experiments; for SI (CC50 HMLE/IC50 HepG2) / SI (CC50 L02/IC50 HepG2): selectivity index; for SI (CC50 HMLE/IC50 HepG2): HMLE vs HepG2; for SI (CC50 L02/IC50 HepG2): L02 vs HepG2
[4] = Cytotoxicity (SRB) against non-tumoral HMLE cells; type: cell-based, human; details: human, HMLE cells (non-tumoral human mammary epithelial cells); increasing concentrations up to 100 μM; mean ± SD of at least three independent experiments; read-out: Normal Human Cell Lines, CC50, HMLE
[5] = system: HeLa cells; experiment: In vitro anti-proliferative SRB assay, HeLa; type: cell-based, human; details: for IC50: Homo sapiens, HeLa, increasing concentrations up to 30 μM, mean ± SD of at least three independent experiments; for SI (CC50 HMLE/IC50 Hela) / SI (CC50 L02/IC50 Hela): selectivity index; for SI (CC50 HMLE/IC50 Hela): HMLE vs HeLa; for SI (CC50 L02/IC50 Hela): L02 vs HeLa
[6] = system: SW1990 cells; experiment: In vitro anti-proliferative SRB assay, SW1990; type: cell-based, human; details: for IC50: Homo sapiens, SW1990, increasing concentrations up to 30 μM, mean ± SD of at least three independent experiments; for SI (CC50 HMLE/IC50 SW1990) / SI (CC50 L02/IC50 SW1990): selectivity index; for SI (CC50 HMLE/IC50 SW1990): HMLE vs SW1990; for SI (CC50 L02/IC50 SW1990): L02 vs SW1990
[7] = system: A549 cells; experiment: In vitro anti-proliferative SRB assay, A549; type: cell-based, human; details: for IC50: Homo sapiens, A549, increasing concentrations up to 30 μM, mean ± SD of at least three independent experiments; for SI (CC50 HMLE/IC50 A549) / SI (CC50 L02/IC50 A549): selectivity index; for SI (CC50 HMLE/IC50 A549): HMLE vs A549; for SI (CC50 L02/IC50 A549): L02 vs A549
[8] = system: five human cancer cell lines (HepG2, HeLa, MCF-7, A549 and SW1990); experiment: In vitro anti-proliferative SRB assay, summary statements over the five-line panel; type: cell-based; details: most of their in vitro IC50 values against the five human cancer lines
Protocol: With a aim of identifying potential anticancer agents with enhanced levels of activity, as well as verifying the conclusions provided above, we took a14 as a starting compound, and then designed and synthesized a series of chalcones b1–42 bearing methoxy groups at the 2' and 6'-positions of the B-ring, whilst varying the substituents on the A-ring. The cytotoxicities of the resulting chalcones were evaluated in vitro against five human cancer cell lines and other two non-tumoral cell lines, including HepG2, HeLa, MCF-7, A549, SW1990, HMLE and L02, and the results are shown in Table 2.
HepG2 and MCF7 cells were grown in the Eagle’s minimum essential medium with Earle’s balanced salts (MEM-EBSS) medium, HeLa, A549 and L02 cells were grown in Dulbecco’s Modified Eagle Media (DMEM), SW1990 cells were grown in RPMI-1640 medium, and HMLE cell were grown in DMEM/F-12 medium. The media were supplemented with 100 U/mL penicillin, […] streptomycin and 10% fetal bovine serum (FBS), and incubated at 37 °C in a humidified atmosphere containing 5% CO2.
Cells were seeded into 96-well plates (4000 cells/well) and incubated at 37 °C in a humidified 5% CO2 atmosphere. After 24 h, the cells were treated with different concentrations of the compounds for 48 h in triplicate to generate dose-response curves. Cell viability was evaluated using the sulforhodamine B (SRB) assay as previous described. […] Etoposide was used as the positive control.

[9] = system: MCF-7 cells; experiment: In vitro anti-proliferative SRB assay, MCF-7; type: cell-based, human; details: for IC50: Homo sapiens, MCF7, increasing concentrations up to 30 μM, mean ± SD of at least three independent experiments; for SI (CC50 HMLE/IC50 MCF7) / SI (CC50 L02/IC50 MCF7): selectivity index; for SI (CC50 HMLE/IC50 MCF7): HMLE vs MCF7; for SI (CC50 L02/IC50 MCF7): L02 vs MCF7
[10] = system: human mammary epithelial cell (HMLE); experiment: Cytotoxicity (SRB) against non-tumoral HMLE cells; type: cell-based; details: HMLE versus the five tumoral cell lines

Structure (SMILES)	CC50 at 48 h [1]	IC50 [3]	SI (CC50 HMLE/IC50 HepG2) [3]	SI (CC50 L02/IC50 HepG2) [3]	CC50 at 48 h [4]	IC50 [5]	SI (CC50 HMLE/IC50 Hela) [5]	SI (CC50 L02/IC50 Hela) [5]	IC50 [6]	SI (CC50 HMLE/IC50 SW1990) [6]	SI (CC50 L02/IC50 SW1990) [6]	IC50 [7]	SI (CC50 HMLE/IC50 A549) [7]	SI (CC50 L02/IC50 A549) [7]	IC50 [8]	melting point	IC50 [9]	SI (CC50 HMLE/IC50 MCF7) [9]	SI (CC50 L02/IC50 MCF7) [9]	SI between the CC50 in HMLE and IC50 in tumoral cells [10]	other results
CCOc1ccccc1C(=O)/C=C/c1c(OC)cccc1OC [b8, (E)-1-(2-Ethoxyphenyl)-3-(2,6-dimethoxyphenyl)prop-2-en-1-one]	39.6 ± 7.53 µM	4.23 ± 0.09 µM	0.2	9.3	0.83 ± 0.21 µM	8.72 ± 0.07 µM	0.1	4.5	8.2 ± 0.12 µM	0.1	4.8	7.36 ± 0.37 µM	0.1	5.4	< 10 µM	48.8 to 50.4 °C	8.56 ± 0.17 µM	0.1	4.6		SI between the CC50 in L02 and IC50 in tumoral cells [2]: more than 2 fold
COc1cccc(OC)c1/C=C/C(=O)c1ccccc1OCc1ccccc1 [b11, (E)-1-(2-(Benzyloxy>)phenyl)-3-(2,6-dimethoxyphenyl)prop-2-en-1-one]	38.3 ± 5.63 µM	2.76 ± 0.04 µM	7.6	13.9	21 ± 1.26 µM	3.62 ± 0.07 µM	5.8	10.6	7.43 ± 0.56 µM	2.8	5.2	3.63 ± 0.13 µM	5.8	10.5	< 10 µM	94.6 to 97.9 °C	4.15 ± 0.2 µM	5.1	9.2	2–7 fold	
COc1cc(C(=O)/C=C/c2c(OC)cccc2OC)ccc1O [b29, (E)-1-(4-Hydroxy-3-methoxyphenyl)-3-(2,6-dimethoxyphenyl)prop-2-en-1-one]	> 100 µM	0.97 ± 0.04 µM	6.5	>103.1	6.31 ± 0.13 µM	1.83 ± 0.08 µM	3.4	>54.6	3.03 ± 0.05 µM	2.1	>33.0	1.5 ± 0.07 µM	4.2	>66.7	< 10 µM	128.7 to 131.2 °C	1.79 ± 0.2 µM	3.5	>55.9	2–7 fold and 2.1–6.5 fold	fold more potent than etoposide ([7]; A549 cells, ratio of IC50 values versus etoposide): 11.5 fold
COc1cccc(OC)c1/C=C/C(=O)c1ccccc1F [b31, (E)-1-(2-Fluorophenyl)-3-(2,6-dimethoxyphenyl)prop-2-en-1-one]	> 100 µM	18 ± 0.88 µM	>5.6	>5.6	> 100 µM	23.3 ± 0.42 µM	>4.3	>4.3	> 30 µM			27.4 ± 0.67 µM	>3.6	>3.6		66.6 to 68.1 °C	23.5 ± 0.98 µM	>4.3	>4.3	2–7 fold	
COc1cccc(OC)c1/C=C/C(=O)c1cccc(Cl)c1 [b34, (E)-1-(3-Chlorophenyl)-3-(2,6-dimethoxyphenyl)prop-2-en-1-one]	46.9 ± 13.9 µM	13.5 µM	0.7	3.5	9.42 ± 1.21 µM	16.6 µM	0.6	2.8	21.4 µM	0.4	2.2	16.1 µM	0.6	2.9		116.5 to 117.2 °C	22 µM	0.4	2.1		SI between the CC50 in L02 and IC50 in tumoral cells [2]: more than 2 fold
